Assay results reported in patent publication US12558345B2, “CHK1/2 inhibitors for use in the treatment of neuroblastomas and/or soft tissue sarcomas” (Eli Lilly and Company, priority 2015, dated 2026).
Counter-ions that a name gives are not always drawn.

Key:
[1] = system: Thirty solid tumor cell lines from 13 tumor histotypes; assay: Monolayer Proliferation and Cytotoxicity Assay (Oncotest, modified PI assay); type: cell-based; settings: 96 h, 4 days of treatment, PI fluorescence, read-out: EC50, growth inhibition of the majority of the tumor cell lines
Description: One measure of potency of a CHK1 inhibitor is its ability to inhibit the proliferation of cancer cells in culture due to uncontrolled replication origin activation. (Conti et al. Cell Cycle 6: 2760-2767, 2007) Determination of CHK1 inhibitor antiproliferative activity in cell lines derived from a broad range of tumor types is indicative of which tumor types may be clinically responsive to chemotherapy with CHK1 inhibitors. The following described cellular proliferation assay is run at Oncotest, GmbH in Germany. Thirty solid tumor cell lines are derived from 13 different tumor histotypes, each represented by 1 to 6 different cell lines (Oncotest, GmbH). […] Briefly, adherent cells are harvested from exponential phase cultures by trypsinization, counted and plated in 96 well flat-bottomed microtiter plates at a cell density depending on the cell line (4.000-20.000 cells/well). […] Finally, PI fluorescence is measured using the Cytofluor 4000 microplate reader (excitation k=530 nm, emission k=620 nm) to determine the total viable cell number. Growth inhibition is expressed as Test/Control×100 (% T/C) values. Based on the T/C values, relative IC50 values are determined using non-linear regression (log[conc. of inhibitor] versus response (% T/C)).

[2] = system: SH-SY5Y human NBM cancer cell xenograft; assay: Xenograft Tumor Model SH-SY5Y; type: in vivo, mouse; settings: comparator day 28, 8 mg/kg dose, p-value <0.001
Description: The following protocol can be used to measure reductions in tumor volume in response to an active pharmaceutical ingredient. Expand human NBM cancer cells SH-SY5Y (ATCC, #CRL-2226) in culture, harvest, and inject 5×10^6 cells in 200 μL of 1:1 solution of HBSS and Matrigel® subcutaneously into the right rear flank of female CD-1 nu/nu mice (20-24 g, Charles River Laboratories). Expand human NBM cancer cells KELLY (Sigma-#92110411) in culture, harvest, and inject 5×10^6 cells in 200 μL of 1:1 solution of HBSS and Matrigel® subcutaneously into the right rear flank of female CB-17 SCID mice (20-24 g, Charles River Laboratories). Expand human NBM cancer cells IMR-32 (ATCC, #CCL-127) in culture, harvest, and inject 5×10^6 cells in 200 μL of 1:1 solution of HBSS and Matrigel® subcutaneously into the right rear flank of female CB-17 SCID mice (20-24 g, Charles River Laboratories).
For all “ST” models (encompassing RMS and LMS), patient-derived xenografts are established from viable human tumor tissue and are serially passaged in animals a limited number of times to maintain tumor heterogeneity. […] Tumor response is determined by tumor volume measurement performed twice per week during the course of treatment.

[3] = system: ST1547 LMS patient-derived xenograft; assay: Xenograft Tumor Model ST1547; type: in vivo, mouse; settings: comparator day 28, p-value <0.001
Description: For all “ST” models (encompassing RMS and LMS), patient-derived xenografts are established from viable human tumor tissue and are serially passaged in animals a limited number of times to maintain tumor heterogeneity. In subcutaneous models, athymic nude mice (Crl:NU(NCr)-Foxn1nu) or CB-17 SCID mice (CRL-CB17/Icr-Prkdcscid/IcrIcoCrl) are injected or implanted unilaterally into the flank with tumor fragments harvested from host animals, each implanted from a specific passage lot. For all studies, measure tumor growth and body weight twice per week beginning on the seventh day after implantation. When tumor size reaches 150-300 mm^3, randomize animals and group into groups of 4-7 animals. Prepare test compound in an appropriate vehicle (e.g. vehicle can be 20% Captisol® in sterile water) and administer subcutaneously for three consecutive days followed by a four day dosing holiday and repeat for a minimum of four weeks. Tumor response is determined by tumor volume measurement performed twice per week during the course of treatment.

| SMILES | EC50 [1] | % Regression [2] | % T/C [3] |
| --- | --- | --- | --- |
| COc1cccc(OCCCN)c1-c1cc(Nc2cnc(C#N)cn2)n[nH]1 [Example 2, 5-(5-(2-(3-Aminopropoxy)-6-methoxyphenyl)-1H-pyrazol-3-ylamino)pyrazine-2-carbonitrile dihydrogen chloride salt] | < 20 nM | – | – |
| COc1cccc(OCCCN)c1-c1cc(Nc2cnc(C#N)cn2)n[nH]1 [Example 5, 5-(5-(2-(3-Aminopropoxy)-6-methoxyphenyl)-1H-pyrazol-3-ylamino)pyrazine-2-carbonitrile methanesulfonic acid monohydrate] | – | −21% | 5% |
